This note sets out measurements from US20060063759A1, “Tricyclic steroid hormone nuclear receptor modulators” (priority 2002, published 2006).

This assay has as its target T1, human MR (Homo sapiens, UniProt P08235).
T1 construct: The full length human MR gene is cloned from a human kidney or human brain cDNA library; His tag from the pAcHLT vector (own knowledge); made in house; host or cells: Sf9 insect cells (baculovirus, pAcHLT transfer vector)
T1 sequence (P08235 1-984): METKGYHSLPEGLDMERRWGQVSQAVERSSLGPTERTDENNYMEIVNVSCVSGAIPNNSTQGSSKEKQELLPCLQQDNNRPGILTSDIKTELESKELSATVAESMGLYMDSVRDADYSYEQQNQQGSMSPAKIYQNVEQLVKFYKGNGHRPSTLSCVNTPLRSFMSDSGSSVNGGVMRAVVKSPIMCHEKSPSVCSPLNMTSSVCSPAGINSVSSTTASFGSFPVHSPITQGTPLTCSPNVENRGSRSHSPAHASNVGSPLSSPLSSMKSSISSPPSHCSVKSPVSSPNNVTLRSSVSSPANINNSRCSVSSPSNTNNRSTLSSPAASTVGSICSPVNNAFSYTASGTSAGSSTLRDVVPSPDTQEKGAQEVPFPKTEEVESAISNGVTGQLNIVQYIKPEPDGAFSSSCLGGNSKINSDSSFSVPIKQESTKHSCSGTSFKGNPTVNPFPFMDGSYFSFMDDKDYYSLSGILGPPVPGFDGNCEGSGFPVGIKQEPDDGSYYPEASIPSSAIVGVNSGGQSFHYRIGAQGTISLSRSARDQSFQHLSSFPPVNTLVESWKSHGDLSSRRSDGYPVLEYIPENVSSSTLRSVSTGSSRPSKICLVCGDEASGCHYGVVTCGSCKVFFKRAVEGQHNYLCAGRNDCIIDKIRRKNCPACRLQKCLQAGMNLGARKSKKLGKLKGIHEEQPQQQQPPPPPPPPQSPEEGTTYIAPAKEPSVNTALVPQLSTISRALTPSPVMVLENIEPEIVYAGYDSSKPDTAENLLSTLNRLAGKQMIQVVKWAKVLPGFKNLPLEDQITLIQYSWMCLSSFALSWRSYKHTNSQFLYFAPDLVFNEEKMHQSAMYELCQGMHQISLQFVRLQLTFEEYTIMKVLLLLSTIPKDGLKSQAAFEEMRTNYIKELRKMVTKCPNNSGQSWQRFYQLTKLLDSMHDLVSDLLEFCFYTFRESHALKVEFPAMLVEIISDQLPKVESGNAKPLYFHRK
Put plainly: Mineralocorticoid Receptor Binding Assay ([3H]-aldosterone). The following applies: [3H]-aldosterone binding, human MR expressed in Sf9 cells; read-out: MR Ki. The protocol: All ligands, radioligands, solvents, and reagents employed in the binding assays are readily available from commercial sources, or can be readily synthesized by the ordinarily skilled artisan.
The full length human MR gene is cloned from a human kidney or human brain cDNA library. […] The PCR reaction is performed in a final volume of 50 μl containing about 1 μl of a 50× stock solution of polymerase; about 1 μl of a 50× stock solution of dNTP; about 5 μl of an appropriate PCR buffer; about 1 μl of each primer; about […] of a H. kidney or H. brain cDNA library; and about 36 μl of water. The reaction is allowed to denature for about 30 seconds at 95 degrees Celsius, anneal for about 30 seconds at 55 degrees Celsius, and extend for about 5 minutes at 72 degrees Celsius, the sequence being repeated for a total of about 35 cycles. […] To extract the cDNA product from the agarose gel, the QIAEX II Gel Extraction protocol (QIAGEN, Inc.) is employed according to the manufacturer's instructions. Following extraction, the MR cDNA is cloned into an appropriate cloning vector (Zero Blunt TOPO PCR Cloning Kit Invitrogen, Inc.) and a pAcHLT-baculovinis transfer vector (B.D./Pharminogen), then expressed in SF9 insect cells, essentially according to manufacturer's instructions. Sf9 cells are grown at a scale where gram quantity cell pellets are obtained for subsequent use in the MR binding assay. Harvested cell pellets are lysed by repeated freeze-thaw cycles (about 4) in a suitable lysis buffer then centrifuged at about 1×10^3 G (with the supernatant being saved for future assays).
MR binding assays are performed in a final total volume of about 250 μl containing about 20-25 μg of protein and 0.5 nM of [^3H]-aldosterone plus varying concentrations of test compound or vehicle. The assay binding buffer consists of 30 mM sodium molybdate, 30 mM of TRIS-HCl, 5 mM sodium phosphate, 5 mM sodium pyrophosphate, and about 10% glycerol, pH=7.5.
Incubations are carried out at 4 degrees Celsius with shaking for about 16 hours. 200 μl aliquots of each incubation are filtered onto Millipore HA 0.45 micron 96-well filter plates, pre-moistened with cold 30 mM TRIS-HCl. The filter plates are suctioned dry with vacuum and immediately washed 3× with cold 30 mM TRIS-HCl. The plates are then punched out and the amount of receptor-ligand complex is determined by liquid scintillation counting using 4 ml of Ready Protein Plus™ liquid scintillation cocktail.
IC50 values (defined as the concentration of test compound required to decrease [^3H]-aldosterone binding by 50%/o) are then determined.
Usually Ki stands for a measure of affinity in units of concentration, obtained from inhibition or displacement. Consider `CC(C)S(=O)(=O)Nc1ccc(C=C2c3ccccc3CCc3ccccc32)cc1` [Example 107, Propane-2-sulfonic acid [4-(10,11-dihydro-dibenzo[a,d]cyclohepten-5-ylidenemethyl)-phenyl]-amide], for which the Ki is below 500 nM.

For `CSc1cccc(C=C2c3ccccc3CCc3ccccc32)c1` [Example 278, 5-(3-Methylsulfanyl-benzylidene)-10,11-dihydro-5H-dibenzo[a,d]cycloheptene], the Ki is below 500 nM.

For the compound `Cc1cccc2c1/C(=C/c1cccc(NS(C)(=O)=O)c1)c1ccccc1CC2` [Example 313], the Ki was below 500 nM.

Turning to `CS(=O)(=O)Nc1ccc2c(c1)CCc1ccccc1/C2=C/c1cccc(O)c1` [Example 337], the Ki was below 1000 nM.

Consider `CS(=O)(=O)Nc1cccc(/C=C2/c3ccccc3CCc3cc(F)ccc32)c1` [Example 354], for which the Ki was below 500 nM.

`COc1ccc2c(c1)CCc1cc(Cl)ccc1/C2=C\c1cccc(NS(C)(=O)=O)c1` [Example 425]: the Ki was below 500 nM.

In the case of `COc1ccc2c(c1)CCc1cc(Cl)ccc1/C2=C/c1cccc(NS(C)(=O)=O)c1` [Example 426], the Ki is below 500 nM.

Regarding `CS(=O)(=O)Nc1cccc(/C=C2\c3ccc(F)cc3CCc3ncccc32)c1` [Example 486, (E)-N-[3-(8-fluoro-10,11-dihydro-benzo[4,5]cyclohepta[1,2-b]pyridin-5-ylidenemethyl)-phenyl]-methanesulfonamide], the inhibition constant (Ki) was below 500 nM.

Consider `CS(=O)(=O)Nc1cccc(C=C2c3ccccc3CCc3ccsc32)c1` [Example 493], for which the Ki was below 500 nM.

As for `CS(=O)(=O)Nc1cccc(/C=C2/c3ccccc3CCc3ccncc32)c1` [Example 513], the Ki was below 1000 nM.

On to `CC(=O)Nc1nc2c(s1)/C(=C\c1cccc(NS(C)(=O)=O)c1)c1ccccc1CC2` [Example 558], for which the Ki is below 500 nM.

Turning to `O=c1[nH]c2cc(/C=C3/c4ccc(F)cc4OCc4ncccc43)ccc2n1CCN1CCOCC1` [Example 618, (E)-5-(8-Fluoro-11H-10-oxa-1-aza-dibenzo[a,d]cyclohepten-5-ylidenemethyl)-1-(2-morpholin-4-yl-ethyl)-1,3-dihydro-benzoimidazol-2-one], the Ki was below 500 nM.

For `O=[N+]([O-])c1cccc(/C=C2/c3ccccc3OCc3c(Cl)cccc32)c1` [Example 621], the Ki is below 500 nM.

Consider `O=c1[nH]c2ccc(/C=C3/c4ccc(F)cc4OCc4ncccc43)cc2[nH]1` [Example 625], for which the inhibition constant (Ki) was below 500 nM.

Regarding `O=c1[nH]c2ccc(CC3c4ccccc4COc4cc(F)ccc43)cc2[nH]1` (centres unmarked) [Example 645], the Ki is below 500 nM.

In the case of `Cc1ccc2c(c1)/C(=C/c1cccc(NS(C)(=O)=O)c1)c1ccccc1CO2` [Example 678], the Ki is below 500 nM.

In the case of `CS(=O)(=O)Nc1cccc(C=C2c3ccccc3CSc3c(Cl)cc(Cl)cc32)c1` [Example 697], the Ki is below 500 nM.

Turning to `Cn1c(=O)n(C)c2cc(/C=C3\c4ccccc4COc4cc(F)ccc43)ccc21` [Example 717], the Ki was below 500 nM.

As to `O=c1[nH]c2cc(/C=C3\c4ccc(F)cc4OCc4ncsc43)ccc2n1CCN1CCOCC1` [Example 719], the Ki was below 500 nM.

For the compound `CS(=O)(=O)Nc1cccc(C=C2c3ccccc3CSc3c(Cl)cccc32)c1` [Example 720], the Ki was below 500 nM.

For `COCC(=C1c2ccccc2CCc2cc(Cl)ccc21)c1cccc(NS(C)(=O)=O)c1` [Example 756, N-{3-[1-(2-Chloro-10,11-dihydro-dibenzo[a,d]cyclohepten-5-ylidene)-2-methoxy-ethyl]-phenyl}-methanesulfonamide], the Ki is below 500 nM.

On to `C/C(=C1\c2ccccc2CCc2cc(C)ccc21)c1cccc(NS(C)(=O)=O)c1` [Example 781], for which the Ki was below 500 nM.

Take `C/C(=C1/c2ccccc2CCc2cc(C)ccc21)c1cccc(NS(C)(=O)=O)c1` [Example 782]: the Ki is below 500 nM.

`C/C(=C1\c2ccccc2COc2cc(Cl)ccc21)c1cccc(NS(C)(=O)=O)c1` [Example 791]: the Ki is below 500 nM.

As for `C/C(=C1/c2ccccc2COc2cc(Cl)ccc21)c1cccc(NS(C)(=O)=O)c1` [Example 792], the Ki is below 500 nM.

Take `CCOc1ccc2c(c1)OCc1ccccc1/C2=C(\C)c1cccc(NS(C)(=O)=O)c1` [Example 815]: the Ki is below 500 nM.

As for `CCCCOc1ccc2c(c1)OCc1ccccc1/C2=C(/C)c1cccc(NS(C)(=O)=O)c1` [Example 816], the Ki was below 500 nM.

Consider `C/C(=C1\c2ccccc2CCc2cc(OCC3CC3)ccc21)c1cccc(NS(C)(=O)=O)c1` [Example 825], for which the Ki is below 500 nM.

On to `C/C(=C1/c2ccccc2CCc2cc(OCC3CC3)ccc21)c1cccc(NS(C)(=O)=O)c1` [Example 826], for which the Ki was below 500 nM.
